Earlier results on two molecules are cited in patent US20240366648A1, “NAD-AUGMENTATION THERAPY FOR PARKINSON'S DISEASE” (Vestlandets Innovasjonsselskap AS (VIS), priority 2021, published 2024).

One series relates to PD patients. As to conditions: cited from earlier work.
The next series has as its target T1, a-synuclein (Homo sapiens, UniProt P37840).
T1 construct: host or cells: PD patients in a clinical trial (endogenous protein)
The note with it: in vivo; cited from earlier work.

For `C#CCN(C)[C@H](C)Cc1ccccc1` [L-Deprenyl, selegiline], the “decrease of motor decline compared to tocopherol” value in the series on PD patients is recorded as 50%.

B1: cinpanemab: a-synuclein antibody drug (antibody, chains of the INN, looked up, V domains shown)
VH: EVQLVESGGGLVEPGGSLRLSCAVSGFDFEKAWMSWVRQAPGQGLQWVARIKSTADGGTTSYAAPVEGRFIISRDDSRNMLYLQMNSLKTEDTAVYYCTSAHWGQGTLVTVSS
VL: SYELTQPPSVSVSPGQTARITCSGEALPMQFAHWYQQRPGKAPVIVVYKDSERPSGVPERFSGSSSGTTATLTITGVQAEDEADYYCQSPDSTNTYEVFGGGTKLTVL
With B1, the “clinical trial outcome in PD” value in the series with a-synuclein is “did not achieve proof-of-concept and missed its primary and secondary endpoints”.
